Here are results for 17 molecules from patent US11458083B2, “Cosmetic and/or dermatological composition containing a merocyanine derivative comprising specific polar groups consisting of hydroxyl- and ether-functionalities” (L'OREAL, priority 2011, dated 2022).

Assay type in all cases: physicochemical
The nature of data set [1]: UV shielding properties: UV spectra in ethanol. More on the design: Absorption maximum λmax: unit not given here. Particulars: UV spectrum in ethanol. The text has this:
The UV shielding properties of the merocyanine derivatives are investigated by measuring their UV spectra in ethanol. In the following table the investigated absorption maxima (Amax) together with the corresponding A^1%1cm values are listed.

The nature of data set [2]: Photostability of the UV filters in a formula film exposed to a solar simulator (HPLC). Particulars: film about 20 μm, UVA dose 42 J/cm^2. From the text: The percentage of residual amount of each UV filter (merocyanine compound and dibenzoylmethane compound) caused by the exposure to a solar simulator of a formula spread in a film having a thickness of about 20 μm was measure. The evaluation was done by HPLC analysis of each UV filter in a solution after extraction of the film, by comparing exposed and non-exposed samples. Solar simulator: Apparatus Oriel […] equipped with a 4 pouces outlet, a 81017 filter and a dichroic mirror. The samples were exposed in horizontal position. The UV exposure was characterized by: • a UVB flux of 0.35-0.45 mW/cm^2 • a UVA flux 16-18 mW/cm^2. Each residual amount of each UV filter was measured by HPLC chromatography with a sensor having diodes bars. About 20 mg of the composition are spread on the surface of a rough melt silica disc. 3 films of composition were exposed to the solar simulator and 3 other films were used as control. The samples were exposed 3 per 3 to the light of the simulator during a sufficient time delivering an UVA dose of 42 J/cm^2. At the end of the exposure, the disc was introduced in a bowl of 600 ml with 10 ml of appropriate solvent (ie generally ethanol). The disc and the bowl were then placed during 5 minutes in an ultrasonic tank.

Data set [3] is described as follows: Storage (chemical) stability in water/ethanol solution, UPLC. The following applies: 0.5% in water/ethanol 1/1, 45° C. The protocol: The chemical stability of the compounds can be assessed in a water/ethanol solution 1/1 with compounds solubilized at 0.5%.
(§1) Once the solution prepared, it is placed in an oven at 45° C. for 2 months for stability and 1 h at 60° C. for acidic stress. Then the solution is aliquoted (0.005% w/v in H2O/ACN 50/50) for liquid chromatography analysis to check disappearance or not.
(§2) UPLC Acquity (Waters) with diod array detector eλ (Waters).
(§3) Column: Acquity HSS T3 (Waters), length: 50 mm, Inner diameter: 2.1 mm, particles diameter 1.8 μm. Mobile phase A=ammonium acetate 20 mM, B=Acetonitrile.
(§4) • Flow rate: 0.5 mL/min • T: 20° C. • Detection at UV 383 nm

Data set [4] can be described thus: Acid media stability (HCl 0.1M), UPLC. Particulars: HCl 0.1M in water/ethanol/isopropanol 50/40/10 (v/v/v), 1 h at 60° C. The protocol:
These solutions could be acidified to check also stability toward acid media for example HCl 0.1M in a water/ethanol/isopropanol 50/40/10 (v/v/v).
as §1, §2, §3, §4

As for `COCCOC(=O)/C(C#N)=C/C=C/N(CCOC)CCOC` [Compound 2], in data set [1], the “A^1%1 cm at absorption maximum” value stood at 2046 and the “Absorption maximum λmax” value came out at 380.

With `N#C/C(=C\C=C\N1CCOCC1)C(=O)OCC(O)CO` (centres unmarked) [Compound 9], in data set [1], the “A^1%1 cm at absorption maximum” value turned out to be 2414 and the “Absorption maximum λmax” value was determined as 380.

Consider `CCOC(=O)/C(C#N)=C/C=C/N(CCOC)CCOC` [Compound 1], for which, in data set [1], the “A^1%1 cm at absorption maximum” value was determined as 2283 and the “Absorption maximum λmax” value worked out at 380.

Consider `N#C/C(=C\C=C\N1CCCCC1)C(=O)OCC(O)CO` (centres unmarked) [Compound 7], for which, in data set [1], the “A^1%1 cm at absorption maximum” value worked out at 2467 and the “Absorption maximum λmax” value is on record as 381.

As for `CCCCCCCCOC(=O)/C(C#N)=C/C=C/N(CC)CCO` [Compound 18], in data set [1], the “A^1%1 cm at absorption maximum” value is given as 2036 and the “Absorption maximum λmax” value was found to be 385.

Turning to `COc1ccc(C(=O)CC(=O)c2ccc(C(C)(C)C)cc2)cc1` [Avobenzone, 4-(tert-butyl)-4′-methoxydibenzoylmethane, reference compound], the “% of residual Avobenzone after UV exposure” value in data set [2] (in composition Example 9 (with 1% merocyanine compound 4)) is listed as 91%.

Take `COCCCNC(=O)/C(C#N)=C1\C=C(NCCCOC)CCC1` [Compound 15]: in data set [1], the “A^1%1 cm at absorption maximum” value was found to be 1644 and the “Absorption maximum λmax” value came out at 385. The “Storage stability 2 months 45° C.” value in data set [3] is listed as “No loss”. The “Acid media stability 1 h 60° C. (loss)” value in data set [4] is “Loss 100%”.

Take `CCCCC(CC)CNC1=C/C(=C(/C#N)C(=O)NCCO)CCC1` (centres unmarked) [Compound 16]: in data set [1], the “A^1%1 cm at absorption maximum” value is given as 1618 and the “Absorption maximum λmax” value came out at 386.

As to `CCCCOC(=O)/C(C#N)=C/C=C/N(CCO)CCCC` [Compound 12], in data set [1], the “A^1%1 cm at absorption maximum” value amounted to 2235 and the “Absorption maximum λmax” value is 381.

As to `CCOCCOC(=O)/C(C#N)=C/C=C/N1CCCCC1` [Compound 4], in data set [1], the “A^1%1 cm at absorption maximum” value turned out to be 2568 and the “Absorption maximum λmax” value was 381. Also, in data set [2] (in composition Example 9 (with 2% avobenzone)), the “% of residual merocyanine compound 4 after UV exposure” value was 85%.

On to `CCOCCOC(=O)/C(C#N)=C1\C=C(NCCCOC)CCC1` [Compound 25, 2-ethoxyethyl (2Z)-cyano{3-[(3-methoxypropyl)amino]cyclohex-2-en-1-ylidene}ethanoate], for which, in data set [1], the “A^1%1 cm at absorption maximum” value is given as 1947 and the “Absorption maximum λmax” value came out at 385. Also, the “Storage stability 2 months 45° C.” value in data set [3] is listed as “No loss”. Besides, the “Acid media stability 1 h 60° C. (loss)” value in data set [4] is listed as “Loss 4%”.

For `CCOCCOC(=O)/C(C#N)=C/C=C/N(CCOC)CCOC` [Compound 3], in data set [1], the “A^1%1 cm at absorption maximum” value is on record as 1965 and the “Absorption maximum λmax” value was 380.

For the molecule `CC(C)COC(=O)/C(C#N)=C1\C=C(NCC(C)O)CCC1` (centres unmarked) [Compound 17], in data set [1], the “A^1%1 cm at absorption maximum” value amounted to 2083 and the “Absorption maximum λmax” value turned out to be 385.

On to `CCCN(/C=C/C=C(\C#N)C(=O)OCC(O)CO)CCC` (centres unmarked) [Compound 23], for which, in data set [1], the “A^1%1 cm at absorption maximum” value turned out to be 2230 and the “Absorption maximum λmax” value turned out to be 381.

For `CCOC(=O)/C(C#N)=C1\C=C(NCCCOC)CCC1` [Compound 14], in data set [1], the “A^1%1 cm at absorption maximum” value was 2207 and the “Absorption maximum λmax” value is 385.

Regarding `N#C/C(=C\C=C\N1CCCCC1)C(=O)NCCO` [Compound 6], in data set [1], the “A^1%1 cm at absorption maximum” value came to 2530 and the “Absorption maximum λmax” value was 380.

As for `COCCOCCOC(=O)/C(C#N)=C/C=C/N1CCCCC1` [Compound 5], in data set [1], the “A^1%1 cm at absorption maximum” value was 2252 and the “Absorption maximum λmax” value is given as 381.
